Tests used:
[1] = system: antibodies in sera from SARS patients (sera 1a, 1b, 2, 6, 37, 62, London, SARS-yellow, SARS-green); type: binding, human; design: Binding of serum 6 to linear peptides of protein X1 of SARS-CoV Urbani / Binding of serum 37 to linear peptides of protein X1 of SARS-CoV Urbani / Binding of serum 6 to looped/cyclic peptide (PEPSCAN-ELISA) / Binding of serum 37 to looped/cyclic peptide (PEPSCAN-ELISA) / Binding of serum 37 to looped/cyclic peptides of protein X1 of SARS-CoV Urbani / Binding of serum 6 to linear peptides of protein X2 / Binding of serum 37 to linear peptides of protein X2 / Binding of serum 37 to looped/cyclic peptides of protein X2 of SARS-CoV Urbani / Binding of serum 6 to linear peptides of protein M of SARS-CoV Urbani / Binding of serum 37 to linear peptides of protein M of SARS-CoV Urbani / Binding of serum 6 to looped/cyclic peptides of protein M of SARS-CoV Urbani / Binding of serum 37 to looped/cyclic peptides of protein M of SARS-CoV Urbani / Binding of serum 6 to linear peptides of protein X3 of SARS-CoV Urbani / Binding of serum 37 to linear peptides of protein X3 of SARS-CoV Urbani / Binding of serum 37 to looped/cyclic peptides of protein X3 of SARS-CoV Urbani / Binding of serum 6 to linear peptides of protein X4 of SARS-CoV Urbani / Binding of serum 37 to linear peptides of protein X4 of SARS-CoV Urbani / Binding of serum 37 to looped/cyclic peptides of protein X4 of SARS-CoV Urbani / Binding of serum 6 to linear peptides of protein X5 of SARS-CoV Urbani / Binding of serum 37 to linear peptides of protein X5 of SARS-CoV Urbani / Binding of serum 37 to looped/cyclic peptides of protein X5 of SARS-CoV Urbani / Binding of serum 6 to linear peptides of protein N of SARS-CoV Urbani / Binding of serum 37 to linear peptides of protein N of SARS-CoV Urbani / Binding of serum 6 to linear peptide (PEPSCAN-ELISA) / Binding of serum 1a to looped/cyclic peptides of protein N of SARS-CoV Urbani / Binding of serum 1b to looped/cyclic peptides of protein N of SARS-CoV Urbani / Binding of serum 2 to looped/cyclic peptides of protein N of SARS-CoV Urbani / Binding of serum 6 to looped/cyclic peptides of protein N of SARS-CoV Urbani / Binding of serum 37 to looped/cyclic peptides of protein N of SARS-CoV Urbani / Binding of serum 62 to looped/cyclic peptides of protein N of SARS-CoV Urbani / Binding of serum London to looped/cyclic peptides of protein N of SARS-CoV Urbani / Binding of serum SARS-green to looped/cyclic peptides of protein N of SARS-CoV Urbani: unit not given here
[2] = system: control sera (pooled serum of ten healthy LUMC hospital workers; commercial negative donor pooled serum from the Dutch bloodbank); type: binding, human; design: Binding of Control serum LUMC to linear peptides / Binding of Control serum Blood-bank to linear peptides / Binding of Control serum LUMC to looped peptides / Binding of Control Serum Blood-Bank to Looped peptides / Binding of Control serum LUMC to linear peptides of the protein M of SARS-CoV Urbani / Binding of Control serum Blood-bank to linear peptides of the protein M of SARS-CoV Urbani / Binding of Control serum LUMC to looped peptides of the protein M of SARS-CoV Urbani / Binding of Control Serum Blood-Bank to Looped peptides of the protein M of SARS-CoV Urbani: unit not given here
[3] = system: rabbit serum obtained by immunizing a rabbit with the SARS-CoV strain Frankfurt 1; type: binding; design: Binding of a rabbit serum to linear peptides / Binding of a rabbit serum to looped peptides / Rabbit serum linear peptides / Rabbit serum looped peptides / Binding of a rabbit serum to linear peptides of protein N of SARS-CoV Urbani (Rabbit serum linear peptides) / Binding of a rabbit serum to looped/cyclic peptides of protein N of SARS-CoV Urbani (Rabbit serum looped peptides): unit not given here

LDVIISSIVRQLFKP
0.9: Binding of serum 2 to linear peptides of protein X3 of SARS-CoV Urbani [1]
0.8: Binding of serum 1a to linear peptides of protein X3 of SARS-CoV Urbani [1] | Binding of Control serum LUMC to looped peptides of the protein X3 of SARS-CoV Urbani [2]
0.5: Binding of serum 2 to looped/cyclic peptides of protein X3 of SARS-CoV Urbani [1] | Binding of serum 37 to looped/cyclic peptides of protein X3 of SARS-CoV Urbani [1] | Binding of serum 62 to looped/cyclic peptides of protein X3 of SARS-CoV Urbani [1] | Binding of serum London to linear peptides of protein X3 of SARS-CoV Urbani [1]
0.0: Rabbit serum looped peptides [3]
0.2: Binding of serum London to looped/cyclic peptides of protein X3 of SARS-CoV Urbani [1] | Binding of serum SARS-green to looped/cyclic peptides of protein X3 of SARS-CoV Urbani [1] | Rabbit serum linear peptides [3]
0.7: Binding of serum 37 to linear peptides of protein X3 of SARS-CoV Urbani [1] | Binding of Control Serum Blood-Bank to Looped peptides of the protein X3 of SARS-CoV Urbani [2]
0.6: Binding of serum 1a to looped/cyclic peptides of protein X3 of SARS-CoV Urbani [1] | Binding of serum 62 to linear peptides of protein X3 of SARS-CoV Urbani [1] | Binding of Control serum Blood-bank to linear peptides of the protein X3 of SARS-CoV Urbani [2]
0.3: Binding of serum 1b to linear peptides of protein X3 of SARS-CoV Urbani [1] | Binding of serum 1b to looped/cyclic peptides of protein X3 of SARS-CoV Urbani [1] | Binding of serum 6 to linear peptides of protein X3 of SARS-CoV Urbani [1] | Binding of serum SARS-yellow to looped/cyclic peptides of protein X3 of SARS-CoV Urbani [1]
0.1: Binding of serum SARS-yellow to linear peptides of protein X3 of SARS-CoV Urbani [1]
0.4: Binding of serum 6 to looped/cyclic peptides of protein X3 of SARS-CoV Urbani [1] | Binding of serum SARS-green to linear peptides of protein X3 of SARS-CoV Urbani [1] | Binding of Control serum LUMC to linear peptides of the protein X3 of SARS-CoV Urbani [2]

LEQWNLVIGFLFLAW
0.4: Binding of serum 1b to linear peptides of protein M of SARS-CoV Urbani [1] | Binding of serum London to linear peptides of protein M of SARS-CoV Urbani [1] | Rabbit serum looped peptides [3]
0.3: Binding of serum 1b to looped/cyclic peptides of protein M of SARS-CoV Urbani [1] | Binding of serum SARS-green to linear peptides of protein M of SARS-CoV Urbani [1] | Binding of serum SARS-green to looped/cyclic peptides of protein M of SARS-CoV Urbani [1] | Binding of Control serum LUMC to linear peptides of the protein M of SARS-CoV Urbani [2]
0.2: Binding of serum London to looped/cyclic peptides of protein M of SARS-CoV Urbani [1] | Rabbit serum linear peptides [3]
0.5: Binding of serum 6 to linear peptides of protein M of SARS-CoV Urbani [1] | Binding of serum 6 to looped/cyclic peptides of protein M of SARS-CoV Urbani [1] | Binding of Control serum LUMC to looped peptides of the protein M of SARS-CoV Urbani [2]
0.7: Binding of serum 2 to looped/cyclic peptides of protein M of SARS-CoV Urbani [1] | Binding of serum 37 to looped/cyclic peptides of protein M of SARS-CoV Urbani [1] | Binding of serum 62 to linear peptides of protein M of SARS-CoV Urbani [1]
0.1: Binding of serum SARS-yellow to linear peptides of protein M of SARS-CoV Urbani [1]
0.6: Binding of serum 1a to linear peptides of protein M of SARS-CoV Urbani [1] | Binding of serum 1a to looped/cyclic peptides of protein M of SARS-CoV Urbani [1] | Binding of serum 2 to linear peptides of protein M of SARS-CoV Urbani [1] | Binding of serum 37 to linear peptides of protein M of SARS-CoV Urbani [1] | Binding of serum 62 to looped/cyclic peptides of protein M of SARS-CoV Urbani [1] | Binding of serum SARS-yellow to looped/cyclic peptides of protein M of SARS-CoV Urbani [1] | Binding of Control Serum Blood-Bank to Looped peptides of the protein M of SARS-CoV Urbani [2] | Binding of Control serum Blood-bank to linear peptides of the protein M of SARS-CoV Urbani [2]

LESTQITTDTGIENA
0.1: Binding of serum SARS-green to linear peptides of protein X1 of SARS-CoV Urbani [1] | Binding of a rabbit serum to linear peptides [3]
0.5: Binding of serum 1b to linear peptides of protein X1 of SARS-CoV Urbani [1] | Binding of serum 37 to linear peptides of protein X1 of SARS-CoV Urbani [1] | Binding of a rabbit serum to looped peptides [3]
0.4: Binding of serum 1a to looped/cyclic peptides of protein X1 of SARS-CoV Urbani [1] | Binding of serum 2 to linear peptides of protein X1 of SARS-CoV Urbani [1] | Binding of serum 6 to linear peptides of protein X1 of SARS-CoV Urbani [1] | Binding of serum 62 to linear peptides of protein X1 of SARS-CoV Urbani [1] | Binding of serum 62 to looped/cyclic peptides of protein X1 of SARS-CoV Urbani [1] | Binding of Control Serum Blood-Bank to Looped peptides [2] | Binding of Control serum LUMC to linear peptides [2] | Binding of Control serum LUMC to looped peptides [2]
0.2: Binding of serum 2 to looped/cyclic peptides of protein X1 of SARS-CoV Urbani [1] | Binding of serum 6 to looped/cyclic peptides of protein X1 of SARS-CoV Urbani [1] | Binding of serum London to linear peptides of protein X1 of SARS-CoV Urbani [1] | Binding of serum London to looped/cyclic peptides of protein X1 of SARS-CoV Urbani [1] | Binding of serum SARS-green to looped/cyclic peptides of protein X1 of SARS-CoV Urbani [1] | Binding of serum SARS-yellow to linear peptides of protein X1 of SARS-CoV Urbani [1]
0.3: Binding of serum 1b to looped/cyclic peptides of protein X1 of SARS-CoV Urbani [1] | Binding of serum 37 to looped/cyclic peptides of protein X1 of SARS-CoV Urbani [1] | Binding of serum SARS-yellow to looped/cyclic peptides of protein X1 of SARS-CoV Urbani [1] | Binding of Control serum Blood-bank to linear peptides [2]
0.6: Binding of serum 1a to linear peptides of protein X1 of SARS-CoV Urbani [1]

LFARTRSMWSFNPET
0.6: Binding of serum 2 to looped/cyclic peptides of protein M of SARS-CoV Urbani [1] | Binding of serum 6 to linear peptides of protein M of SARS-CoV Urbani [1] | Binding of serum 62 to looped/cyclic peptides of protein M of SARS-CoV Urbani [1] | Binding of Control Serum Blood-Bank to Looped peptides of the protein M of SARS-CoV Urbani [2] | Binding of Control serum LUMC to looped peptides of the protein M of SARS-CoV Urbani [2]
0.3: Binding of serum SARS-green to looped/cyclic peptides of protein M of SARS-CoV Urbani [1] | Rabbit serum looped peptides [3]
0.4: Binding of serum London to linear peptides of protein M of SARS-CoV Urbani [1]
0.7: Binding of serum 1a to looped/cyclic peptides of protein M of SARS-CoV Urbani [1] | Binding of serum 1b to linear peptides of protein M of SARS-CoV Urbani [1] | Binding of serum 37 to looped/cyclic peptides of protein M of SARS-CoV Urbani [1] | Binding of serum SARS-yellow to looped/cyclic peptides of protein M of SARS-CoV Urbani [1] | Binding of Control serum Blood-bank to linear peptides of the protein M of SARS-CoV Urbani [2]
0.5: Binding of serum 1b to looped/cyclic peptides of protein M of SARS-CoV Urbani [1] | Binding of serum 2 to linear peptides of protein M of SARS-CoV Urbani [1] | Binding of serum 6 to looped/cyclic peptides of protein M of SARS-CoV Urbani [1] | Binding of serum 37 to linear peptides of protein M of SARS-CoV Urbani [1] | Binding of serum 62 to linear peptides of protein M of SARS-CoV Urbani [1] | Binding of serum SARS-green to linear peptides of protein M of SARS-CoV Urbani [1]
0.1: Rabbit serum linear peptides [3]
0.2: Binding of serum London to looped/cyclic peptides of protein M of SARS-CoV Urbani [1] | Binding of serum SARS-yellow to linear peptides of protein M of SARS-CoV Urbani [1]
0.8: Binding of serum 1a to linear peptides of protein M of SARS-CoV Urbani [1] | Binding of Control serum LUMC to linear peptides of the protein M of SARS-CoV Urbani [2]

— patent US20070128217A1 (priority 2003, published 2007)
